From paper PMC6321453, “Identification of Pinocembrin as an Anti-Glycation Agent and α-Glucosidase Inhibitor from Fingerroot (Boesenbergia rotunda): The Tentative Structure–Activity Relationship towards MG-Trapping Activity” (Molecules, 2018)

Assays:
[1] = system: MG-derived AGEs formation in BSA; assay: In vitro glycation of BSA by MG-BSA assay (fluorescent-AGEs formation); type: biochemical, bovine; conditions: compound 0.1 mM, BSA 10 mg/mL, MG 0.25 mM, PBS pH 7.4, 37 °C, 24 h; fluorescence ex 355/em 460 nm
Experimental: All isolated compounds were evaluated for their inhibitory effect on the fluorescent-AGEs formation after incubation with bovine serum albumin (BSA) and MG for 24 h (Figure 2).
Figure 2 Advanced glycation-end products (AGEs) inhibition activity of aminoguanidine (0.1 mM) and isolated compounds (0.1 mM) on MG-derived AGEs formation inhibition in BSA. The results are presented as mean ± SEM for n = 3. Different letters show significant differences analyzed by ANOVA with Duncan’s post hoc test (p < 0.05).
Glycated BSA was carried out according to our previous study. The mixture of bovine serum albumin (BSA, 10 mg/mL), isolated compound (0.1 mM in dimethyl sulfoxide, DMSO), and methylglyoxal (MG, 0.25 mM) in 0.1 M phosphate buffer solution (PBS, pH 7.4) was incubated at 37 °C for 24 h. The glycated BSA was monitored by a spectrofluorometer (Fluroskan Ascent FL, Thermo Scientific, Barrington, IL, USA) at the excitation wavelength of 355 nm, and an emission wavelength of 460 nm. Aminoguanidine hydrochloride (AG) was utilized as a positive control. The percentage inhibition of MG-derived AGE formation was calculated by utilizing the formula below:(1) Inhibition of AGEs formation (%)=(FC−FCB)−(FS−FSB)/FC−FCB×100 where FC and FCB are the fluorescent intensities of the control with and without MG, respectively. FS and FSB are the fluorescent intensities of the sample with and without MG, respectively.

[2] = Direct MG-trapping activity by HPLC; conditions: compound 0.1 mM, MG 0.1 mM, PBS pH 7.4, 37 °C, 24 h; HPLC of 2-MQ
Experimental: Figure 3 The percentage of MG-trapping abilities of isolated compounds (0.1 mM). The results are presented as the mean ± SEM for n = 3. Different letters show significant differences, as analyzed by ANOVA, with Duncan’s post hoc test (p < 0.05).
The ability of the isolated compounds to trap MG was carried out, according to our previous report. The reaction mixture of MG (0.1 mM), isolated compound (0.1 mM in DMSO) and 0.1 M PBS (pH 7.4) was incubated at 37 °C for 24 h. The quantitative amount of the remaining MG was determined by derivatization with o-phenylenediamine (o-PDA) to convert to 2-methylquinoxaline (2-MQ). Then, 2-MQ obtained was measured by HPLC using 5-methylquinoxaline (5-MQ) as an internal standard. The mixture comprising 100 µL of o-PDA (20 mM) and 100 µL of 5-MQ (5 mM) was added into the sample vials, and incubated at 25 °C for 30 min. HPLC analysis was performed on a Shimadzu HPLC system (binary pump; model LC-10A, an auto-injector; model SIL-10A, and a UV detector; model SPD-10A) equipped with an Inertsil ODS-3 V C18 column (4.6 × 150 mm, 5 μm particle diameter). The column was flushed with a mixture of 1:1 methanol–water at a flow rate of 1 mL/min, and a 10 μL of injection volume. The overall running time was 15 min, and the wavelength used for detection was 315 nm. The area under each chromatogram peak, 2-MQ and 5-MQ, was calculated with an LC solution program. Peak integrality proportions of 2-MQ to 5-MQ were utilized for quantitative examination. The amount of MG was calculated by utilizing the standard curve of 2-MQ/5-MQ proportion. AG was utilized as a positive control. The percentage MG-trapping was calculated utilizing the formula below:(2) %MG−trapping=100−[Amount of (MG in sample−MG in positive control)/Amount of MG in positive control×100]

[3] = system: rat intestinal maltase; assay: α-Glucosidase inhibitory activity and kinetic study, maltase; type: biochemical
Experimental: (§1) The α-glucosidase (from rat intestine) inhibitory effect was evaluated, utilizing our previous study. Rat intestinal maltase and sucrase, a crude enzyme solution, was prepared from rat intestinal acetone powder. A solution of rat intestinal acetone powder (1 g) in 0.9% NaCl solution (30 mL) was centrifuged (12,000 rpm) for 30 min, and then the aliquot obtained was used for the assay. The mixture of 10 μL of isolated compounds (1 mg/mL in DMSO), 30 μL of the phosphate buffer (0.1 M, pH 6.9), and 20 μL of the substrate solution (10 mM for maltose and 100 mM for sucrose in phosphate buffer) was added to a glucose assay kit (80 μL) and the crude enzyme solution (20 μL), which then was incubated at 37 °C for 10 min and 40 min for maltose and sucrose, respectively. The enzymatic activity was measured at 503 nm by using a microplate reader, model 3550 UV. The percentage inhibition was calculated by [(Ac − As)/Ac] × 100, where Ac is the absorbance of the control, and As is the absorbance in the presence of sample. The results were reported as the IC50 value, and the experiment was carried out in triplicate. Acarbose® was used as a standard control.
(§2) The kinetic analysis of pinocembrin was determined by using an increasing concentration of substrates maltose (2–10 mM) and sucrose (20–100 mM), and a Lineweaver–Burk plot was performed to determine the type of inhibition. The secondary plot was utilized to determine the Ki and Ki′ values, which were replotted between the slope and intercept from the Lineweaver–Burk plot vs the various concentrations of pinocembrin.

[4] = biological target: T1, rat intestinal sucrase (Rattus norvegicus, UniProt P23739); assay: α-Glucosidase inhibitory activity and kinetic study, sucrase; type: biochemical
T1 construct: a crude enzyme solution, was prepared from rat intestinal acetone powder; from tissue; host or cells: rat intestine (acetone powder, crude extract)
T1 sequence (P23739 whole entry): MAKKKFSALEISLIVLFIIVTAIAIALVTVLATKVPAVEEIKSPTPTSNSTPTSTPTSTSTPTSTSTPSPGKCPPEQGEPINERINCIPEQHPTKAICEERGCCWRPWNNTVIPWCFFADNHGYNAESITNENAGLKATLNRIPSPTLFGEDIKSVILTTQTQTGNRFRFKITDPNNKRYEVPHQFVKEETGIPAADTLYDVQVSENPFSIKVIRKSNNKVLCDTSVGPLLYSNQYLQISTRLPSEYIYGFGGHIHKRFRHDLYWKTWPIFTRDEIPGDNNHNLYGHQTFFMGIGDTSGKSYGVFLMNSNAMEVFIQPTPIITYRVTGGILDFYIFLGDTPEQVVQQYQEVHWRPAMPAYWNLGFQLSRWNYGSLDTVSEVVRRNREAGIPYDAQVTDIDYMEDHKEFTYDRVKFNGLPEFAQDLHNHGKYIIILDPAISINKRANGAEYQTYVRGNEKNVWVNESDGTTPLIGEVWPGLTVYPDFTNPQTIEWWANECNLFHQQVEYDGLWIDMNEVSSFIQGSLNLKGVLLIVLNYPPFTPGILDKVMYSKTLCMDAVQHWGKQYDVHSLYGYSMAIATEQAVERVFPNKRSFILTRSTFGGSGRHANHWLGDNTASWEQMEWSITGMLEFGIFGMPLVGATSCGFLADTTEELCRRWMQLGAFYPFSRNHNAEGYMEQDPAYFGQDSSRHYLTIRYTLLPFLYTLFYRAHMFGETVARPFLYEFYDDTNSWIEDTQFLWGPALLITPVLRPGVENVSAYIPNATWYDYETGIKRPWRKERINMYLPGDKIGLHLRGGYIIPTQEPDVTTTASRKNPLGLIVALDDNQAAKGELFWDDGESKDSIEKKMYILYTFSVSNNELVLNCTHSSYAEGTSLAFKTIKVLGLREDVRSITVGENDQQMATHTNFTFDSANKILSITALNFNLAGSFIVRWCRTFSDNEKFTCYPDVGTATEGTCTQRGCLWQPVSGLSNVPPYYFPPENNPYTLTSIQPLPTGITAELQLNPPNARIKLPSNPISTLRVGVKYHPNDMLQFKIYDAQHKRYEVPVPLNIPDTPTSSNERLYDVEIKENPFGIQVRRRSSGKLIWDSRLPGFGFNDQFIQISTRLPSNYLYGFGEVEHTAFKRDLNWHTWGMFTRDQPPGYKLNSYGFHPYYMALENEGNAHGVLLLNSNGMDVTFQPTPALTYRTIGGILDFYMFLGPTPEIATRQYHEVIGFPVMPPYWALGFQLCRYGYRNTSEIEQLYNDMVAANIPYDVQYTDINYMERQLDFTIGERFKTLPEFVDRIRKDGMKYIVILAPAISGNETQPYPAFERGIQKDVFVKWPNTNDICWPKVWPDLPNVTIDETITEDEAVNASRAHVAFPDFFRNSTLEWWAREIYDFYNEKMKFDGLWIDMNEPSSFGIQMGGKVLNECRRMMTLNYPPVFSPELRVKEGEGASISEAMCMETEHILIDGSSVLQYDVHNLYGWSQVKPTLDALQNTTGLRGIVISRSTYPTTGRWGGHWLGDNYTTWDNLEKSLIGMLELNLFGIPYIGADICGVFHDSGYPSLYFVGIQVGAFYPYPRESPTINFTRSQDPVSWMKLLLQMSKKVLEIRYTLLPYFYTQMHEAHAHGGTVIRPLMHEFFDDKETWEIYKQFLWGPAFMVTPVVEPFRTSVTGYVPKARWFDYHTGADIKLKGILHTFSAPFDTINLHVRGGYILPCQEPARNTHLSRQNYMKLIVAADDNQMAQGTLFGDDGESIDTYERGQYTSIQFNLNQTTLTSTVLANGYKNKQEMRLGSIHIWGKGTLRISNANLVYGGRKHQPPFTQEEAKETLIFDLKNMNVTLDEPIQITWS
Experimental: as §1, §2

[5] = Direct MG-trapping activity by HPLC; conditions: against methylglyoxal

Row | Compound | Inhibition of MG-derived AGEs formation [1] [%] | MG-trapping activity, percentage related to AG (100%) [2] [%] | further results
1 | Cl.N=C(N)NN [AG, Aminoguanidine hydrochloride, reference compound] | 28 | 100 | 
2 | O=C1C[C@@H](c2ccccc2)Oc2cc(O)cc(O)c21 [compound 1, pinocembrin] | 38 | 109 | Inhibition Type ([3]; maltase, Lineweaver–Burk plot): mixed-type; Ki ([3]; maltase, dissociation constant of EI complex, secondary plot of slope): 93 µM; Ki ([3]; maltase, dissociation constant of ESI complex, secondary plot of intercept): 138 µM; IC50 ([3]; rat intestinal maltase, substrate maltose, read-out: IC50 against maltase): 350 ± 21 µM; IC50 ([4]; rat intestinal sucrase, substrate sucrose, read-out: IC50 against sucrose): 390 ± 20 µM; Inhibition Type ([4]; sucrase, Lineweaver–Burk plot): mixed-type inhibition; Ki ([4]; sucrase, dissociation constant of EI complex): 51 µM; Ki ([4]; sucrase, dissociation constant of ESI complex): 253 µM; EC50 [5]: 63.2 ± 10.1 µM
3 | COc1cc(O)c2c(c1)O[C@H](c1ccccc1)CC2=O [compound 2, pinostrobin] | 19 | 5 | 
4 | COc1cc(O)cc(O)c1C(=O)/C=C/c1ccccc1 [compound 4, cardamomin] | 44 | 28 | 
5 | COc1cc2c(c(O)c1C(=O)/C=C/c1ccccc1)C=CC(C)(CCC=C(C)C)O2 (stereo not drawn) [compound 5, boesenbergin B] | 39 | 19 | 
6 | COc1cc(O)c(C(=O)[C@@H]2[C@H](CC=C(C)C)C(C)=CC[C@H]2c2ccccc2)c(O)c1 [compound 6, panduratin A] | 43 | 60 | 
7 | COc1cc(O)cc(O)c1C(=O)C1C(CC=C(C)C)C(C)=CCC1c1ccccc1 (stereo not drawn) [compound 7, isopanduratin A] | 36 | 9 | 
8 | COc1cc(/C=C/c2ccccc2)oc(=O)c1 [compound 8, demethoxyyangonin] | 46 | 23 | 
9 | alpinetin [compound 3] | 50 | 14 | 
